Calls of active or inactive are those of the source. The calls are words filed in the database; no cut-off is given here.

Assay type in all cases: functional, organism-based
One assay has as its system Saccharomyces cerevisiae. Briefly: Antimicrobial activity against Saccharomyces cerevisiae NRRL Y2034 by twofold dilution method.
A further assay relates to Candida albicans. Nature of the assay: Antimicrobial activity against Candida albicans by twofold dilution method.
Another assay deals with Aspergillus flavus. Nature of the assay: Antimicrobial activity against Aspergillus flavus NRRL 501 by twofold dilution method.

Take `CCCCCCCCCN1C(=O)SC[C@H]1[C@@]1(OC)C[C@H]2C[C@@H](CC[C@H](C)/C=C\CC/C(C)=C\C(=O)O2)O1`: the outcome with Saccharomyces cerevisiae, in the assay on Candida albicans and in the assay with Aspergillus flavus was inactive.
In the case of `CCCCCCCCN1C(=O)SC[C@H]1[C@@]1(OC)C[C@H]2C[C@@H](CC[C@H](C)/C=C\CC/C(C)=C\C(=O)O2)O1`, the result with Saccharomyces cerevisiae, in the assay on Candida albicans and with Aspergillus flavus was inactive.
For `CO[C@]1([C@@H]2CSC(=O)N2C)C[C@H]2C[C@@H](CC[C@H](C)/C=C\CC/C(C)=C\C(=O)O2)O1`, the result in the assay with Saccharomyces cerevisiae, with Candida albicans and with Aspergillus flavus was inactive.
As to `C/C1=C/C(=O)O[C@@H]2C[C@@H](CC[C@H](C)/C=C\CC1)O[C@@](O)([C@@H]1CSC(=O)N1)C2`, the result with Saccharomyces cerevisiae, in the assay on Candida albicans and in the assay on Aspergillus flavus was Active.
Turning to `CCCCCCN1C(=O)SC[C@H]1[C@@]1(OC)C[C@H]2C[C@@H](CC[C@H](C)/C=C\CC/C(C)=C\C(=O)O2)O1`, the outcome in the assay on Saccharomyces cerevisiae, in the assay with Candida albicans and in the assay with Aspergillus flavus was inactive.
`CCCCCCCCCCN1C(=O)SC[C@H]1[C@@]1(OC)C[C@H]2C[C@@H](CC[C@H](C)/C=C\CC/C(C)=C\C(=O)O2)O1`: the result in the assay with Saccharomyces cerevisiae, with Candida albicans and in the assay on Aspergillus flavus was inactive.
Take `CCCCCCCCCCN1C(=O)SC[C@H]1[C@@]1(O)C[C@H]2C[C@@H](CC[C@H](C)/C=C\CC/C(C)=C\C(=O)O2)O1`: the result in the assay with Saccharomyces cerevisiae, in the assay with Candida albicans and with Aspergillus flavus was inactive.
For the molecule `C/C1=C/C(=O)O[C@@H]2C[C@@H](CC[C@H](C)/C=C\C=C\CC1)O[C@@](O)([C@@H]1CSC(=O)N1)C2`, the outcome with Saccharomyces cerevisiae, in the assay with Candida albicans and with Aspergillus flavus was Active.
`C/C1=C/C(=O)O[C@@H]2C[C@@H](CC[C@H](C)/C=C\CC1)O[C@@](O)([C@H]1CSC(=O)N1)C2`: the outcome in the assay on Saccharomyces cerevisiae, in the assay on Candida albicans and in the assay on Aspergillus flavus was Active.
Regarding `CO[C@]1([C@@H]2CSC(=O)N2)C[C@H]2C[C@@H](CC[C@H](C)/C=C\CC/C(C)=C\C(=O)O2)O1`, the outcome with Saccharomyces cerevisiae, with Candida albicans and in the assay on Aspergillus flavus was inactive.
Regarding `C/C1=C/C(=O)O[C@@H]2CC(CC[C@H](C)/C=C\C=C\CC1)O[C@@](O)([C@H]1CSC(=O)N1)C2`, the outcome in the assay with Saccharomyces cerevisiae, with Candida albicans and in the assay on Aspergillus flavus was Active.
On to `CCCCCN1C(=O)SC[C@H]1[C@@]1(OC)C[C@H]2C[C@@H](CC[C@H](C)/C=C\CC/C(C)=C\C(=O)O2)O1`, for which the result with Saccharomyces cerevisiae, in the assay with Candida albicans and in the assay on Aspergillus flavus was inactive.

For the origin of these results see ChEMBL document CHEMBL1152642, “Semisynthetic latrunculin B analogs: studies of actin docking support a proposed mechanism for latrunculin bioactivity” (Bioorg Med Chem, 2009).
